The record followed here is patent publication US20150038417A1, “GLP-1 Agonists” (Novo Nordisk A/S, priority 2011, published 2015).

The subject of the assay is Normal male Sprague Dawley rats. Description: Effect of liraglutide on alcohol consumption (two-bottle choice: water vs 10% alcoholic drink). The format is in vivo, rat. The source says:
Certain strains of rats are alcohol dependent and consume large amounts of alcohol if given the choice.
Normal male Sprague Dawley rats were housed individually and fed normal rat chow. Each rat had access to two drinking bottles, one of them containing water and one of them containing a 10% alcoholic drink (diluted Toffee liquor from ALDI®). The rats were acclimatised to the alcoholic drink for a least one week. Consumption of water and the alcoholic drink were continuously recorded on line using the BIOdaq food and water intake monitoring system http://www.bodaq.com/®.
Basal water and alcoholic drink consumption was recorded on a 24 h daily basis. After this had stabilised, consumption of water and alcoholic drink was recorded over a 24 h period. […] Water and alcohol consumption were recorded for 24 h after injection.

As for “Liraglutide (HAEGTFTSDVSSYLEGQAAKEFIAWLVRGRG; chains of the INN, looked up)”, the “Accumulated fluid intake over 24 h, alcohol (10% alcoholic drink), after Liraglutide (Mean ± SEM)” value (30 μg/kg liraglutide s.c., single dose, 24 h after injection, n=8, same group before dosing 25.6 ± 0.6 g, p < 0.001, paired t-test) is reported as 16.1 ± 1.3 g. Moreover, where the note is “30 μg/kg liraglutide s.c., before vs after administration”, the “Effect on 24 h intake of alcoholic drink and water (in words)” value was “significantly and selectively reduced intake of alcoholic drink and not water”. In addition, the “Alcohol intake compared with vehicle treated rats (in words)” value (rats offered to choose between alcohol and water) was “significantly reduces the alcohol intake”.
